The target of assay [1] is T1, α4β1 integrin (Homo sapiens, UniProt P05556+P13612).
T1 construct: endogenous in cells; host or cells: U-937 cells
As to the kind of experiment: U-937 cell adhesion to human VCAM-1 (α4β1 binding assay). It counts as cell-based. As to conditions: U-937 cells, immobilized human VCAM-1; read-out: IC50 values in the α4β1 assays. The method, then:
U-937 Cell Adhesion to Human VCAM-1 (α4β1 Binding Assay)
Recombinant human soluble VCAM-1 (R&D Systems Ltd., UK) at 2 μg/ml in PBS was immobilized overnight onto microtiter plates. Unbound VCAM-1 was washed away and VCAM-1 coated plates were blocked with bovine serum albumin (BSA) 2,5% in PBS for 2 h at room temperature. U-937 cells were labelled with 5-carboxyfluorescein diacetate (5-CFDA) in order to detect bound cells to the wells. Test compounds were added to the wells followed by U-937 cells and the adhesion assay was performed for 1 h at 37° C. Following incubation, the wells were emptied and washed. Inhibition of binding was measured by the quantity of fluorescence bound to the plate for each of the various concentrations of test compound, as well as for controls containing no test compound, with a Cytofluor 2300 fluorescence measurement system.

The target of assay [2] is T2, α4β7 integrin (Homo sapiens, UniProt P13612+P26010).
T2 construct: endogenous in cells; host or cells: RPMI 8866 cells
T2 sequence (P13612 34-1032): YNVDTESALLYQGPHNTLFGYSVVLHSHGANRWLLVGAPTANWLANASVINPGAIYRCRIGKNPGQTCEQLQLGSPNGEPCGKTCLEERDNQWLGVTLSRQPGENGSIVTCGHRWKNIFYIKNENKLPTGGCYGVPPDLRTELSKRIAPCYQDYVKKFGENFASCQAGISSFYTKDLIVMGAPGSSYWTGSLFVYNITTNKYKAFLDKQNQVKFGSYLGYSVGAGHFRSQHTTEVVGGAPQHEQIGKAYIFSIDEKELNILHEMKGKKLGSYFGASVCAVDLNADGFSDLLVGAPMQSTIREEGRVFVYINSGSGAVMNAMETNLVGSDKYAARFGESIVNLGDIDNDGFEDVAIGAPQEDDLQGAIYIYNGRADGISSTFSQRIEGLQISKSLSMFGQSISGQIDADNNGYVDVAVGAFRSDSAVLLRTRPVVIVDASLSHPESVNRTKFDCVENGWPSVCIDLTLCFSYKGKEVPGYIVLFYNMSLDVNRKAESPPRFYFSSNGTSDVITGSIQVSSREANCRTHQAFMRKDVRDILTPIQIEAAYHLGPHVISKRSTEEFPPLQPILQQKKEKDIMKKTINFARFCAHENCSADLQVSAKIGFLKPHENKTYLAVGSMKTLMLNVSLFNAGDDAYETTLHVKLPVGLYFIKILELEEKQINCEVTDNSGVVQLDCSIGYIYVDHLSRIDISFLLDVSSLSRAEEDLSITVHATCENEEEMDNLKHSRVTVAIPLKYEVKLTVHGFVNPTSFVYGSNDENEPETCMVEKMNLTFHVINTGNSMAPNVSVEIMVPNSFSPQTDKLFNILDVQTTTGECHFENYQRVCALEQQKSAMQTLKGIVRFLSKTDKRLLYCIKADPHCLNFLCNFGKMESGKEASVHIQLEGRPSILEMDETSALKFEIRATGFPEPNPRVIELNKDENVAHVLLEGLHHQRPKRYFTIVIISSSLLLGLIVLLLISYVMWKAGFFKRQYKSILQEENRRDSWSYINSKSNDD
T2 sequence (P26010 20-798): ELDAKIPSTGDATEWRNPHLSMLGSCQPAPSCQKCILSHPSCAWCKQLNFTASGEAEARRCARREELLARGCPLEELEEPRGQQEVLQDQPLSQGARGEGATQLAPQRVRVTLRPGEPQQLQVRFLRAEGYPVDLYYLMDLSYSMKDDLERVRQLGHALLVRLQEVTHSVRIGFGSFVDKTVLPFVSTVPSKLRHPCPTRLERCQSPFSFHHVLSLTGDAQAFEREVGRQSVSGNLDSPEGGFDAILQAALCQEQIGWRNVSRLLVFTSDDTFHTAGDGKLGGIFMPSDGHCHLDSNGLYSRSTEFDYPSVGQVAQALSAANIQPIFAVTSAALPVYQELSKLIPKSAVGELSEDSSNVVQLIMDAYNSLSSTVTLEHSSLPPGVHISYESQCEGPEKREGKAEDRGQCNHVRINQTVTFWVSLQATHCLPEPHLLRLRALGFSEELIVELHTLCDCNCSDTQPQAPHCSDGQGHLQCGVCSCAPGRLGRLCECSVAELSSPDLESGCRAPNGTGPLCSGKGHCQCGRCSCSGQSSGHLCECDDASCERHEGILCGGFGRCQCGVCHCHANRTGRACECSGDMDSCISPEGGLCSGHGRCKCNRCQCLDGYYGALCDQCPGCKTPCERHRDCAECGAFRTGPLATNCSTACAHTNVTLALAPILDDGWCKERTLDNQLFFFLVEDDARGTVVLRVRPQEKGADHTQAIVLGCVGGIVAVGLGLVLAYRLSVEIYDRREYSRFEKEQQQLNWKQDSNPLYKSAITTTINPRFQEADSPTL
As to the kind of experiment: RPMI 8866 cell adhesion to mouse MAdCAM-1 (α4β7 binding assay). It counts as cell-based. As to conditions: RPMI 8866 cells, immobilized mouse MAdCAM-1. On the procedure:
RPMI 8866 Cell Adhesion to Mouse MAdCAM-1 (α4β7 Binding Assay)
Recombinant mouse MAdCAM-1 was coated on a 96-well plate overnight. Unbound MAdCAM-1 was washed away and plates were blocked with 0,5% BSA. Cells were labelled with BCECF-AM and added to ligand-coated wells. Test compounds were added to the wells followed by RPMI 8866 and the adhesion assay was performed for 45 min at room temperature. Following incubation, the wells were emptied and washed. Inhibition of binding was measured by the quantity of fluorescence bound to the plate for each of the various concentrations of test compound, as well as for controls containing no test compound, with a Cytofluor 2300 fluorescence measurement system.

Setting [3] is: read-out: IC50 values in the α4β7 assays.
The mark [4] stands for this setting: read-out: IC50 values in the α4β7.

SMILES strings stand for the structures. Read-outs that look alike come from different tables or passages of the source.

T1 sequence (P05556 21-798, one chain of several): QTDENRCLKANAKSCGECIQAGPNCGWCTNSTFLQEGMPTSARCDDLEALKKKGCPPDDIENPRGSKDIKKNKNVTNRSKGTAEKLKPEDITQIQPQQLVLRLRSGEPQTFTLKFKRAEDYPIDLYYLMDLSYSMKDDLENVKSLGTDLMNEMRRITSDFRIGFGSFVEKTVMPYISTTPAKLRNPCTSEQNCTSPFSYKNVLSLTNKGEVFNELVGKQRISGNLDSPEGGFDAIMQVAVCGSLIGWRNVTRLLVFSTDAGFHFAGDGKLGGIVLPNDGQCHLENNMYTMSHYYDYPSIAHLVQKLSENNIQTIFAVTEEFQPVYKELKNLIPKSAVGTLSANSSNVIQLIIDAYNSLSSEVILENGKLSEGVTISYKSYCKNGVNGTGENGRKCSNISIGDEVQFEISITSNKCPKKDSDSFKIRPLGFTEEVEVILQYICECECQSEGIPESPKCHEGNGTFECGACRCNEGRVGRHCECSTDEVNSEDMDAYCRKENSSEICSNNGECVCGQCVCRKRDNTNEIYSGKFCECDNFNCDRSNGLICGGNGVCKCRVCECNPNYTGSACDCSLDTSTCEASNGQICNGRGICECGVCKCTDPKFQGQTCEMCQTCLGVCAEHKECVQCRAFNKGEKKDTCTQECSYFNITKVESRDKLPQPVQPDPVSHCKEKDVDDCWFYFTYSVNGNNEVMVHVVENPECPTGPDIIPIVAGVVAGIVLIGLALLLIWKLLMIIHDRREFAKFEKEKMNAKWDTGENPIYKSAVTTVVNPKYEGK

For the molecule `CN(C(=O)N[C@@H](Cc1ccc(NC(=O)c2c(Cl)cccc2Cl)cc1)C(=O)O)c1ccccc1S(=O)(=O)N1CCCCC1` [Example 76, (S)-3-[4-(2,6-Dichlorobenzoylamino)phenyl]-2-{3-methyl-3-[2-(piperidine-1-sulfonyl)-phenyl]ureido}propionic acid], the values for the IC50 in assay [1] and in assay [2] (setting [3]) were less than 100 nM and 1000 to 10000 nM, respectively.
As for `CN(C(=O)N[C@@H](Cc1ccc(NC(=O)c2c(Cl)cccc2Cl)cc1)C(=O)O)c1ccccc1S(=O)(=O)c1ccccc1` [Example 23, (S)-2-[3-(2-Benzenesulfonylphenyl)-3-methylureido]-3-[4-(2,6-dichlorobenzoylamino)phenyl]propionic acid], the values for the IC50 in assay [1] and in assay [2] (setting [3]) were less than 100 nM and 1000 to 10000 nM, respectively.
As to `CN1CCN(C(=O)Oc2ccc(C[C@H](NC(=O)Nc3ccccc3S(=O)(=O)c3ccccc3)C(=O)O)cc2)CC1` [Example 114, 4-Methylpiperazine-1-carboxylic acid 4-{(S)-2-[3-(2-benzenesulfonylphenyl)ureido]-2-carboxyethyl}phenyl ester], in assay [2] (setting [3]), the half-maximal inhibitory concentration (IC50) was in the range of 1000 to 10000 nM.
Consider `CN(C(=O)c1ccccc1N(CC1CC1)C(=O)N[C@@H](Cc1ccc(NC(=O)c2c(Cl)cncc2Cl)cc1)C(=O)O)C1CCCCC1` [Example 83], for which the IC50 in assay [1] and in assay [2] (setting [4]) was less than 100 nM in each case.
Regarding `CCCN(C(=O)N[C@@H](Cc1ccc(NC(=O)c2c(Cl)cncc2Cl)cc1)C(=O)O)c1ccccc1C(=O)N(C)C1CCCCC1` [Example 82], the IC50 in assay [1] and in assay [2] (setting [4]) was less than 100 nM in each case.
In the case of `O=C(Nc1ccccc1S(=O)(=O)N1CCCCC1)N[C@@H](Cc1ccc(NC(=O)c2c(Cl)cccc2Cl)cc1)C(=O)O` [Example 38, (S)-3-[4-(2,6-Dichlorobenzoylamino)phenyl]-2-{3-[2-(piperdine-1-sulfonyl)phenyl]ureido}propionic acid], the half-maximal inhibitory concentration (IC50) in assay [1] is less than 100 nM; in assay [2] (setting [3]), 1000 to 10000 nM.
Consider `CN1CCN(S(=O)(=O)c2ccccc2NC(=O)N[C@@H](Cc2ccc(NC(=O)c3c(Cl)cncc3Cl)cc2)C(=O)O)CC1` [Example 90, (S)-3-(4-{[1-(3,5-Dichloropyridin-4-yl)methanoyl]amino}phenyl)-2-{3-[2-(4-methylpiperazine-1-sulfonyl)phenyl]ureido}propionic acid], for which the half-maximal inhibitory concentration (IC50) in assay [1] and in assay [2] (setting [4]) was less than 100 nM throughout.
With `O=C(Nc1ccccc1S(=O)(=O)Nc1ccccc1)N[C@@H](Cc1ccc(NC(=O)c2c(Cl)cccc2Cl)cc1)C(=O)O` [Example 22, (S)-3-[4-(2,6-Dichlorobenzoylamino)phenyl]-2-[3-(2-phenylsulfamoylphenyl)ureido]propionic acid], the half-maximal inhibitory concentration (IC50) in assay [1] is less than 100 nM.
On to `O=C(Nc1ccccc1S(=O)(=O)N1CCCCC1)N[C@@H](Cc1ccc(Nc2nccc3ccncc23)cc1)C(=O)O` [Example 130, (S)-3-[4-([2,7]Naphthyridin-1ylamino)-phenyl]-2-{3-[2-(piperidine-1-sulfonyl)phenyl]ureido}propionic acid], for which the IC50 in assay [1] is less than 100 nM.
For `O=C(Nc1ccccc1S(=O)(=O)C1CCCC1)N[C@@H](Cc1ccc(NC(=O)c2c(Cl)cncc2Cl)cc1)C(=O)O` [Example 92, (S)-2-[3-(2-Cyclopentanesulfonylphenyl)ureido]-3-(4-{[1-(3,5-dichloropyridin-4-yl)methanoyl]amino}phenyl)propionic acid], the IC50 in assay [1] was less than 100 nM.
With `CN(C1CCCCC1)S(=O)(=O)c1ccccc1NC(=O)N[C@@H](Cc1ccc(NC(=O)c2c(Cl)cccc2Cl)cc1)C(=O)O` [Example 40], the IC50 in assay [1] is less than 100 nM; in assay [2] (setting [3]), 1000 to 10000 nM.
Turning to `CN(C(=O)N[C@@H](Cc1ccc(NC(=O)c2c(Cl)cncc2Cl)cc1)C(=O)O)c1ccccc1Cc1ccccc1` [Example 79, (S)-2-[3-(2-Benzylphenyl)-3-methylureido]-3-(4-{[1-(3,5-dichloropyridin-4-yl)methandyl]amino}-phenyl)propionic acid], in assay [1], the IC50 is less than 100 nM.
Regarding `O=C(Nc1ccccc1S(=O)(=O)N1CCCCC1)N[C@@H](Cc1ccc(Oc2nccc3cnccc23)cc1)C(=O)O` [Example 136, (S)-3-[4-([2,6]Naphthyridin-1-yloxy)phenyl]-2-{3-[2-(piperidine-1-sulfonyl)phenyl]ureido}propionic acid], in assay [1], the half-inhibitory concentration (IC50) was less than 100 nM.
The same measure, in the same setting: as for `O=C(Nc1ccccc1S(=O)(=O)c1ccccc1)N[C@@H](Cc1ccc(OC(=O)c2c(Cl)cncc2Cl)cc1)C(=O)O` [Example 116, 3,5-Dichloroisonicotinic acid 4-{(S)-2-[3-(2-benzenesulfonylphenyl)ureido]-2-carboxyethyl}phenyl ester], the figure is less than 100 nM; as for `O=C(Nc1ccccc1S(=O)(=O)N1CCCCC1)N[C@@H](Cc1ccc(NC(=O)c2c(Cl)cncc2Cl)cc1)C(=O)O` [Example 62, (S)-3-{4-[(3,5-Dichloropyridine-4-carbonyl)amino]phenyl}-2-{3-[2-(piperidine-1-sulfonyl)phenyl]ureido}propionic acid], less than 100 nM; as for `CN(C(=O)c1ccccc1N(CC1CCCCC1)C(=O)N[C@@H](Cc1ccc(NC(=O)c2c(Cl)cncc2Cl)cc1)C(=O)O)C1CCCCC1` [Example 86], less than 100 nM.
Turning to `O=C(Nc1cc(Cl)ccc1S(=O)(=O)c1ccccc1)N[C@@H](Cc1ccc(NC(=O)c2c(Cl)cncc2Cl)cc1)C(=O)O` [Example 68, (S)-2-[3-(2-Benzenesulfonyl-5-chlorophenyl)ureido]-3-{4-[(3,5-dichloropyridine-4-carbonyl)amino]phenyl}propionic acid], the concentration for half-maximal inhibition (IC50) in assay [1] was less than 100 nM.
Regarding `Cc1ccc(C(=O)Nc2ccc(C[C@H](NC(=O)Nc3ccccc3S(=O)(=O)c3ccccc3)C(=O)O)cc2)c(Cl)n1` [Example 103, (S)-2-[3-(2-Benzenesulfonylphenyl)ureido]-3-(4-{[1-(2-chloro-6-methylpyridin-3-yl)methanoyl]amino}phenyl)propionic acid], in assay [1], the half-inhibitory concentration (IC50) was less than 100 nM.
